# Measured values as given in patent US5716982A, “Retinoids and methods of use of same” (priority 1995, dated 1998).
# Like-named read-outs stand apart in the source and are kept apart here.
# Tests used:
# fetus absorption in mice = experiment: Fetus absorption in mice (anti-teratogenicity); type: in vivo, mouse
# Description: (§1) Female mice were examined by vaginal smear the morning after being caged with male mice, and if sperm or a vaginal plug was discovered, then the mice were determined to be pregnant. The retinoids were administered at the dosage indicated starting on the seventh day of pregnancy and continued once a day for the next ten days. On the 20th day after the female mice were determined to be pregnant, they were sacrificed by cervical dislocation. Both sides of the uterus were checked and the number of living embryos, dead embryos, and absorbed embryos were counted. The living embryos were further examined for bone abnormalities.
# [1] = tested on: bone abnormalities in mouse fetus; experiment: Bone abnormalities in mouse fetus (anti-teratogenicity); type: in vivo
# Description: as §1
# After the embryos became transparent, they were dissected and their skeletons were checked by observation under a microscope.
# [2] = tested on: human acute myeloid leukemia (AML), neuroblastoma, teratocarcinoma, melanoma, and rat rhabdomyosarcoma cells; conditions: Smith et al. 1992; cited from earlier work
# [3] = tested on: Human promyelocytic leukemia HL-60 cells; experiment: Cell differentiation of HL-60 cells, nitroblue tetrazolium (NBT) reduction; type: cell-based; conditions: Homo sapiens
# Description: Human promyelocytic leukemia HL-60 cells were cultured in RPMI-1640 medium supplemented by 10% heat-inactivated calf serum and 100 U/ml of penicillin plus 100 μg/ml of streptomycin. The flasks containing cells and medium were incubated in an incubator with 5% CO2 at 37° C. Log phase cells were seeded into the medium at a concentration of 1.2×10^5to 1.4×10^5 cells per ml and cultured in flasks containing 5 ml of medium. Each group consisted of three flasks. Different concentrations of coumarin-retinoids were added. At intervals following the addition of coumarin-retinoids to the cultures, a small portion of cells was removed and live cells were counted under a light microscope using a dye-exclusionmethod with trypan blue. Cell differentiation was judged in terms of morphology and nitroblue tetrazolium (NBT) reduction.
# For a determination of NBT reducing activity, a portion of the coumarin-retinoid-treated cells was removed at intervals following treatment and centrifuged. After centrifugation, 0.5 ml of 0.1% NBT (containing 100 ng TPA) was added to each tube. The contents of the test tubes were then incubated for 1 hour at 37° C. Cell smears were prepared from the cell sediment and stained using the Wright-Giemsa technique. For each smear prepared, 200 cells were isolated for examination under a light microscope with an oil immersion lens. Cells stained with blue-black granules were considered NBT-positive cells. The 50% differentiation or effective concentration (ED50 or EC50) is shown in terms of molar (M) concentration of the […] tested.
# (§2) The protocols of Examples 14 and 21 were used, for the NBT and MTT assays, respectively.
# [4] = tested on: lipid peroxidation of rat liver microsome; experiment: Fe/Cys induced lipid peroxidation of rat liver microsome (anti-oxidation); type: biochemical; conditions: n = 3
# Description: Lipid peroxidation was induced by adding 1 mM FeSO4 and 10 mM cysteine to the microsome fraction of rat liver with the incubations being carried out at 37° C. for 30 minutes in a reaction mixture containing 10 mM phosphate buffer (pH 7.4). The reaction was terminated by the addition of 0.3 ml of 20% trichloroacetic acid solution. Thiobarbituric acid was then added and the mixture was boiled for 10 minutes. After cooling the test tubes under running tap water, the optical density at 532 nm was measured. Lipid peroxidation in both the treated groups and the control group was expressed in nmol MDA/mg protein. The percentage inhibition indicates the anti-oxidation properties of the coumarin retinoids tested.
# HL-60 cells = experiment: MTT assay in HL-60 cells; type: cell-based, human; conditions: Homo sapiens, MTT
# Description: (§3) Human cancer cell lines (KB, A2780, MCF-7, HL-60, A549) were used. For a monolayer culture, 0.5 ml of trypsin solution ([…]) was added to the flasks for digestion. Microtiter plates (96 well) were used for the cell culture and 200 μl of cell suspension (1200 tumor cells) were placed in each well and incubated at 37° C. for 24 hours. Following the addition of the test compound, the control and treated flasks were placed in a CO2 incubator for 5 day culture. For the MTT assay, 200 μl of MTT solution (5 mg in 10 ml of phosphate buffer) plus the medium were added and incubated for another 4 hours. Following incubation, the supernatant was discarded and 200 μl of DMSO was added to each well. With a mild agitation the OD values were determined by the MR 700 Elisa at 570 nm (reference wavelength was 450 nm). The ED50 of the compound and tumor cell survival rate [formula] as percent inhibition were calculated.
# as §2
# [5] = tested on: Ornithine decarboxylase (ODC); experiment: Croton oil induced ornithine decarboxylase (ODC) activity in mouse epidermis; type: in vivo; conditions: single dose pretreatment, FIG. 1 (x±SD, n=3)
# Description: ICR mice (6-8 weeks old) were pretreated with a single dose of coumarin retinoid. On the third day, the animals received a topical application of 0.2 ml of 1% croton oil in acetone. All animals were sacrificed five hours after the croton oil treatment and the epidermis was separated by a brief heat treatment at 52° C. for 30 seconds and minced in a blender. The cell suspension and broth were separated by a centrifugation at 30,000×g for 30 seconds and the supernatant was obtained. Ornithine decarboxylase (ODC) enzyme activity was determined by measuring the release of CO2 from L-(^14 C)-ornithine and expressed as nmole CO2 /30 min/mg protein and the results for coumarin retinoid I-10 and I-6 are shown in FIG. 1. […] ODC activity is a critical parameter for monitoring cancer chemoprevention or promotion.
# [6] = tested on: Salmonella typhimurium strain TA100; experiment: Anti-mutagenicity (Ames), MMS-induced his+ revertants, TA100; type: cell-based; conditions: MMS 0.5 μl/plate; for his+ -revertants/per plate, TA100: n = 3
# Description: (§4) An antimutagenicity assay was conducted according to the method developed by Ames et al. using Salmonella typhimurium strains TA 102 and TA 100 and mammalian microsomal enzymes. Beta-naphthoflavone and phenobarbital-induced rat liver supernatant (9000×g S-9 fraction) was used as the enzyme source for metabolic activation. The night before the experiment, certified bacterial solution (assessed for its biological characteristics and donated by Professor Ames) was inoculated into petri dishes. The petri dishes were then incubated for 15 hours at 37° C. From each petri dish, 0.1 ml of the bacterial solution was removed and added to sterile test tubes. To these test tubes, 0.1 ml of different concentrations of coumarin retinoids and 0.5 ml of either S-9 mixed solution or phosphate buffer were then added. The final solution for each test tube was incubated in a water bath at 37° C. for 20 minutes before adding 2 ml of agar solution. After thorough mixing, the solution was transferred into petri dishes and incubated once again at 37° C. for 48 hours. After incubation, the number of colonies in each petri dish were counted. The revertant numbers of the bacteria in control and treated groups were compared and the inhibition rate was calculated.
# [7] = tested on: Salmonella typhimurium strain TA102; experiment: Anti-mutagenicity (Ames), MMS-induced his+ revertants, TA102; type: cell-based; conditions: MMS 0.5 μl/plate; for his+ -revertants/per plate, TA102: n = 3
# Description: as §4
# chondrosarcoma in rats = experiment: Growth of transplanted chondrosarcoma in rats; type: in vivo, rat
# Source text: Transplantable chondrosarcomas obtained from Dr. Trown, Hoffman--La Roche Institute of Molecular Biology and Wistar rats obtained from the Breeding Center of Experimental Animals, Chinese Academy of Medical Sciences were used. According to the routine transplantation protocol as described in Cancer Treatment Reports 60(11):1647-1653 (1976) where the small pieces of chondrosarcoma tumor were implanted subcutaneously in the right inguinal region of rats using a trocar. Tumor-bearing rats were randomized to a control group and a treated group. Each group consisted of ten rats. The compound was given orally for 12 days at the indicated dosage. Sixty days after transplantation, the rats were sacrificed and the tumor weight was determined. The inhibition rate was calculated according to the following formula: [formula]
# HCT-8 cell line = experiment: MTT assay in HCT-8 cells; type: cell-based; conditions: Homo sapiens, HCT-8, 120 h; read-out: MTT ED50
# A2780 cell line = experiment: MTT assay in A2780 cells; type: cell-based; conditions: Homo sapiens, A2780, 120 h; read-out: MTT ED50
# Description: as §3, §2
# KB cell line = experiment: MTT assay in KB cells; type: cell-based; conditions: Homo sapiens, 120 h, read-out: MTT ED50
# Description: as §3, §2
# BEL 7402 cell line = experiment: MTT assay in BEL 7402 cells; type: cell-based; conditions: Homo sapiens, Bel-7402, 120 h; Bel7402; read-out: MTT ED50
# [8] = Preuss-Ueberschar et al. 1984; cited from earlier work
# melanoma cell growth = conditions: Jing et al. 1992; cited from earlier work
# [9] = NBT reduction, 50% differentiation, HL-60 (Table 2), read-out: EC50
# [10] = HL-60 (Table 16), read-out: NBT
compound,measurement,setting,value
"CC1=C(/C=C/C(C)=C/C=C/C(C)=C/C(=O)O)C(C)(C)CCC1 [All Trans RA, all-trans-retinoic acid, reference compound]",Implanted Number,"fetus absorption in mice; 15 mg/kg, 15 pregnant mice",186
same,"Delayed Calcification, Occipital number/fetus number",[1]; 10 mg/kg,16/16
same,"Delayed Calcification, Sternum number/fetus number",[1]; 10 mg/kg,16/16
same,Cleft Palate (%),[1]; 15 mg/kg,48%
same,"Delayed Calcification (%), Occipital",[1]; 15 mg/kg,96.0%
same,"Delayed Calcification (%), Sternum",[1]; 15 mg/kg,71.0%
same,"Delayed Calcification, Occipital delay/fetus",[1]; 101 mg/kg (so in the source),6/16
same,"Delayed Calcification, Sternum delay/fetus",[1]; 101 mg/kg (so in the source),16/16
same,cell differentiation,[2],"induces cell differentiation in some human acute myeloid leukemia (AML), neuroblastoma, teratocarcinoma, melanoma, and rat rhabdomyosarcoma cells"
CC(=O)c1cc2ccc(OC(=O)/C=C(C)/C=C/C=C(C)/C=C/C3=C(C)CCCC3(C)C)c(C(=O)O)c2oc1=O [Compound I-5],EC50,[3]; [9],0.28 µM
same,Lipid Peroxidation,[4]; 1 μM,2.19 ± 0.13 μM MDA/mg protein
same,IC50,"HL-60 cells; 120 h, HL-60 (Table 12), read-out: ED50 (the source's name)",8.5 µM
same,inhibition at 10 µM,"HL-60 cells; 10^-5 M, HL-60",51.6%
same,inhibition at 1 µM,"HL-60 cells; 10^-6 M, HL-60",34 ± 7.1%
same,inhibition at 0.1 µM,"HL-60 cells; 10^-7 M, HL-60",11.5 ± 4.2%
CC(=O)c1cc2cc(Cl)c(OC(=O)/C=C(C)/C=C/C=C(C)/C=C/C3=C(C)CCCC3(C)C)cc2oc1=O [Compound I-6],EC50,[3]; [9],0.6 µM
same,inhibition of croton oil induced ODC activity,[5],significantly inhibited the ODC activity induced by croton oil
same,Lipid Peroxidation,[4]; 2 μM,2.16 ± 0.18 μM MDA/mg protein
same,Lipid Peroxidation,[4]; 20 μM,2.13 ± 0.19 μM MDA/mg protein
same,"Inhibition (%), TA100",[6]; 0.1 mg/plate,12.8%
same,"his+ -revertants/per plate, TA100",[6]; 0.1 mg/plate,971.3 ± 102.7 revertants/per plate
same,"Inhibition (%), TA100",[6]; 0.5 mg/plate,15.5%
same,"his+ -revertants/per plate, TA100",[6]; 0.5 mg/plate,947.3 ± 60.3 revertants/per plate
same,"Inhibition (%), TA102",[7]; 0.1 mg/plate,13.8%
same,"his+ -revertants/per plate, TA102",[7]; 0.1 mg/plate,1560 ± 40.0 revertants/per plate
same,"Inhibition (%), TA102",[7]; 0.5 mg/plate,26.6%
same,"his+ -revertants/per plate, TA102",[7]; 0.5 mg/plate,1375 ± 241.5 revertants/per plate
CC(=O)c1cc2c(OC(=O)/C=C(C)/C=C/C=C(C)/C=C/C3=C(C)CCCC3(C)C)cc(OC(=O)/C=C(C)/C=C/C=C(C)/C=C/C3=C(C)CCCC3(C)C)cc2oc1=O [Compound I-10],EC50,[3]; [9],0.013 µM
same,inhibition of croton oil induced ODC activity,[5],significantly inhibited the ODC activity induced by croton oil
same,"Delayed Calcification, Occipital delay/fetus",[1]; 20 mg/kg,22/66
same,"Delayed Calcification, Sternum delay/fetus",[1]; 20 mg/kg,14/66
same,"Delayed Calcification, Occipital delay/fetus",[1]; 40 mg/kg,15/81
same,"Delayed Calcification, Sternum delay/fetus",[1]; 40 mg/kg,21/81
same,"Animals, final","chondrosarcoma in rats; 5 mg/kg p.o., 12 days, 10 animals initial",10
same,Inhibition rate (%),chondrosarcoma in rats; 10 mg/kg p.o.,9.8%
same,"Animals, final","chondrosarcoma in rats; 10 mg/kg p.o., 12 days, 10 animals initial",9
same,"Animals, final","chondrosarcoma in rats; 20 mg/kg p.o., 12 days, 10 animals initial",9
same,Inhibition rate (%),"chondrosarcoma in rats; 20 mg/kg p.o., P < 0.05",42.2%
CC1=C(/C=C/C(C)=C/C=C/C(C)=C/C(=O)Nc2ncnc3c2ncn3C(=O)/C=C(C)/C=C/C=C(C)/C=C/C2=C(C)CCCC2(C)C)C(C)(C)CCC1 [II-A],Implanted Number,"fetus absorption in mice; 20 mg/kg, 12 pregnant mice",141
same,Absorbed Number,"fetus absorption in mice; 20 mg/kg, 12 pregnant mice, 141 implanted",10
same,Implanted Number,"fetus absorption in mice; 40 mg/kg, 15 pregnant mice",181
same,Absorbed Number,"fetus absorption in mice; 40 mg/kg, 15 pregnant mice, 181 implanted",17
same,Cleft Palate (%),[1]; 20 mg/kg,0%
same,"Delayed Calcification (%), Occipital",[1]; 20 mg/kg,7.6%
same,"Delayed Calcification (%), Sternum",[1]; 20 mg/kg,9.0%
same,Cleft Palate (%),[1]; 40 mg/kg,0%
same,"Delayed Calcification (%), Occipital",[1]; 40 mg/kg,7.2%
same,"Delayed Calcification (%), Sternum",[1]; 40 mg/kg,7.2%
same,Inhibition rate (%),chondrosarcoma in rats; 2 mg/kg ×10,49.5%
same,Tumor Weight,chondrosarcoma in rats; 2 mg/kg ×10,5.4 grams
same,"Animals, final","chondrosarcoma in rats; 2 mg/kg ×10, 10 animals initial",9
same,"Animals, final","chondrosarcoma in rats; 5 mg/kg ×10, 10 animals initial",9
CC1=C(/C=C/C(C)=C/C=C/C(C)=C/C(=O)Nc2nc3c(ncn3C(=O)/C=C(C)/C=C/C=C(C)/C=C/C3=C(C)CCCC3(C)C)c(=O)[nH]2)C(C)(C)CCC1 [II-D],EC50,[3]; [10],> 10 µM
same,IC50,HCT-8 cell line,4 µM
same,IC50,A2780 cell line,> 10 µM
same,IC50,KB cell line,> 10 µM
same,IC50,BEL 7402 cell line,5 µM
CC1=C(/C=C/C(C)=C/C=C/C(C)=C/C(=O)n2cnc3c(=O)[nH]c(N)nc32)C(C)(C)CCC1 [II-F],EC50,[3]; [10],> 10 µM
same,IC50,HCT-8 cell line,> 10 µM
same,IC50,A2780 cell line,> 10 µM
same,IC50,KB cell line,> 10 µM
same,IC50,BEL 7402 cell line,> 10 µM
O=c1ccc2ccccc2o1 [coumarin],teratogenicity,[8],not teratogenic
O=c1c(-c2ccc(O)cc2)coc2cc(O)ccc12 [diadzein],melanoma cell growth,melanoma cell growth,inhibits melanoma cell growth
